Results on 25 molecules are retold here after patent US20200171132A1, “METHODS OF INHIBITING FUNGAL CERAMIDE SYNTHASE FOR TREATMENT OF CRYPTOCOCCUS NEOFORMANS INFECTION” (The Research Foundation for the State University of New York, priority 2017, published 2020).

One assay deals with T1, human Cer1 (Homo sapiens, UniProt P27544).
T1 sequence (P27544 1-350): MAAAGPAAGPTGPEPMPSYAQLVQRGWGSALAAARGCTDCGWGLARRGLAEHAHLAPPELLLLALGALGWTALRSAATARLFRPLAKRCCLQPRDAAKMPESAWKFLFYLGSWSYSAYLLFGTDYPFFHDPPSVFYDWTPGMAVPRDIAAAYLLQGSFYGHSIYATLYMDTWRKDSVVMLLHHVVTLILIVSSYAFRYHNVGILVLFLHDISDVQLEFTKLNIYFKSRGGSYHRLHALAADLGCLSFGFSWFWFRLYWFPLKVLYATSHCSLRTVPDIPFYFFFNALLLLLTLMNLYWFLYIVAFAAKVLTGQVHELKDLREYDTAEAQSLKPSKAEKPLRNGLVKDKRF
Conditions: cited from earlier work.

For a further assay, the system named is Cer1. Conditions: cited from earlier work.
In a further assay the test system is GAL7::IPC1. Put plainly: In vitro growth at 37° C., 5% CO2, pH 4.0. It counts as cell-based, Cryptococcus neoformans. Conditions: supplementation.
A further assay relates to Pma1. Nature of the assay: Glucose dependent medium acidification (plasma membrane H+-ATPase activity). Format: cell-based, Cryptococcus neoformans. Here is the method: Glucose-dependent medium acidification was monitored by a modification of a procedure described previously (Perlin, Brown et al. 1988, Soteropoulos, Vaz et al. 2000). Cultures of Cn strain WT, Δcer1, Δcer1+CER1, Δgcs1 were grown to mid-log Phase in YPD. The next day, these cells were transferred to DMEM at pH 4.0 and allowed to grow under shaking conditions for 24 hours. These cells were then harvested and washed using 100 mM KCl, pH 5.0. These pellets were then resuspended in 10 ml KCl, pH 5.0 and incubated under shaking condition at 30° C. These samples were then stored at 4° C. overnight prior to use. For the assay, cells were concentrated to a final A590 of approximately 2.0. 20 μl cells along with 155 μl of bromophenolblue (50 μg/ml) in 100 mM KCl, pH 5.0. 20 μl 20% (w/v) glucose was added to initiate the reaction. Medium acidification was monitored at 590 nm over a period of 5 hours (data point every 3 mins) in a microplate reader (SpectraMax M5).

The next assay has as its system fungal Cer1 (Cn Cer1). Put plainly: High throughput ceramide synthase assay (96-well, NBD-sphingosine, SPE). It counts as biochemical, Cryptococcus neoformans. Conditions: 1 micromolar; wells contained 10 compounds each; 1 hour at 37° C. Here is the method:
The compounds were first diluted to 1 mM each (1:10 dilution with 10% DMSO) with a physiological buffer (YNB medium buffered with HEPES at pH 7.4 containing 2% glucose) and subsequently diluted to 300 μM (1:3.3 dilution) with the same medium (3% DMSO). A 100-μl aliquot of this solution was placed into each well of a 96-well master plate and stored at −20° C. until use. Each well in the screening master plates contained 10 compounds at 1 μM each. The ceramide synthase reaction was performed in a 96-well plate format using fungal Cer1 (Cn Cer1) or human ceramide synthase (Hu-Cer1, -Cer2, -Cer3, -Cer4, -Cer5, or -Cer6) enzyme, containing NBD-Sphingosine (NBD-Sph) (Avanti Polar Lipids) and 18:0 Coenzyme A (Stearoyl Coenzyme A, Avanti Polar Lipids) as substrates using the following concentrations: 10 μM NBD-Sph and 50 μM fatty acid CoA. The reaction mixture was prepared in HEPES buffer (20 mM HEPES, pH 7.2, 25 mM KCl, 250 mM sucrose, and 2 mM MgCl2). Library compounds were added and plate incubated for 1 hour at 37 C. The lipid product (NBD-ceramide) was separated using solid phase extraction (SPE) column chromatography using Strata® C18-E, 96 well plates (Phenomenex). Reaction product was measured using a plate reader.
The Cn Cer1 enzyme is expressed using the pYES-GAL1 galactose inducible system in Saccharomyces cerevisiae whereas the mammalian ceramide synthases (Cer1-6) are induced with tetracycline using the Tet-On System in HCT-116 cells under the control of Geneticin and Blasticidin. Cn Cer1 or Hu Cer1-6 enzymes were extracted using the tag system and enriched in microsomal preparation. Before using the enzymes in the plate screening, each preparation was tested for ceramide activity using the TLC assay illustrated in FIG. 11, to make sure the ceramide synthase activity works as expected. Appropriate negative controls (e.g. Cn Cer1 on glucose or Hu Cer1 in absence of tetracycline) were included in each plate during the screening.
The ceramide synthase assay was performed using NBD-Sphingosine (NBD-Sph) (Avanti polar lipids) and 18:0 Coenzyme A (Stearoyl Coenzyme A, Avanti polar lipids) as substrates using the following concentrations: 10 μM NBD-Sph and 50 μM fatty acid CoA. Enzyme(s)—ceramide synthases—were prepared using microsome purification of the yeasts or mammalian expression system. For yeast, the S. cerevisiae strain BY4741 expressing C. neoformans ceramide synthase 1 using the pYES GAL1 expression system was grown in 200 ml of liquid YNB 2% galactose medium for 16 hours. The same strain grown in the same medium but containing 2% glucose was used as a negative control because the Cn Cer1 gene is under the control of the galactose promoter (GAL1). Cells were then harvested by centrifugation, resuspended in 2 ml of Lysis Buffer (20 mM HEPES/KOH, pH 7.4, 25 mM KCl, 2 mM MgCl2, 250 mM sorbitol) and 50 μl of proteinase inhibitor mixture (Sigma-Aldrich)/g of cells, and broken by bead-bashing at 4° C. for 1.5 h. Cell debris were removed by centrifuging at 1000 g at 4° C. for 10 min. The supernatant was loaded on a 60% (w/w) sucrose cushion and centrifuged at 100,000 g for 1 h. The microsomes were collected from the interphase, snap frozen in liquid nitrogen, and stored at −80° C. until use.
The high throughput assays were adapted from the Avanti Ceramide synthase assay kit (https://avantilipids.com/product/640011/). The reactions were first downsized to 20 μl in a 96-well plate format using human ceramide synthases (Cer1, […], Cer3, Cer4, Cer5, or Cer6) along with Cn Cer1. Lipid product (NBD-ceramide) was separated using solid phase extraction (SPE) column chromatography using Strata® C18-E, 96 well plates (Phenomenex). The reaction product was measured using a plate reader, as in FIG. 12. The Z′ score of the assay is 0.80194, which is considered excellent (FIG. 12).
An initial screening yielded compounds 1-10 (Table 3). […]

For the molecule `CCCCCC[C@@H](C)C1=C(O)C(=O)[C@@H]2[C@H](O)[C@H](C)C[C@H](O)[C@H]2[C@]1(C)C(=O)/C=C\O` [Australifungin], at human Cer1, the “targets human Cer1” value is “targets human Cer1”. Also, in the assay on Cer1, the “known Cer1 inhibitor” value is recorded as “known Cer1 inhibitor”. With `CCCCCCCCCCCCC/C=C/[C@@H](O)[C@H](CO)NC(=O)CCCCCCCCCCCCCCCCC` [C18 ceramide], the “growth defect of GAL7::IPC1 in acidic conditions” value with GAL7::IPC1 is on record as “compensated”. Besides, the Pma1 activity entry in the assay on Pma1 (AbA treated Δgcs1 cells, supplementation) was “increases”. The Pma1 efficiency entry in the assay with Pma1 (Δcer1 cells upon supplementation) is listed as “increase”. Turning to `Cc1cc2c(cc1O)NC(=O)CC2c1c[nH]nc1-c1ccc(F)cc1` (stereo not shown) [Compound 29], the “% reduction in activity (inhibition of Cn Cer1 synthse activity)” value in the assay with fungal Cer1 (Cn Cer1) was 86.1%. In the case of `Cc1nc(CC(=O)NCCSc2nnc(C)s2)cs1` [Compound 30], the “% reduction in activity (inhibition of Cn Cer1 synthse activity)” value with fungal Cer1 (Cn Cer1) was determined as 86.1%.

Consider `O=C1NCC2(CCCN(c3ncnc4[nH]ccc34)CC2)O1` (stereo not shown) [Compound 31], for which the “% reduction in activity (inhibition of Cn Cer1 synthse activity)” value with fungal Cer1 (Cn Cer1) is 85.73%. Consider `O=C1NCC2(CCCN(c3nnnn3-c3ccccc3)CC2)O1` (stereo not shown) [Compound 32], for which, in the assay on fungal Cer1 (Cn Cer1), the “% reduction in activity (inhibition of Cn Cer1 synthse activity)” value is on record as 85.73%. The same measure, in the same setting: the value for `Cc1nc(C(C)C)ncc1C(=O)N(C)Cc1snnc1C` [Compound 33] was 85.73%. Consider `CCn1c(C2CCN(C(=O)C(C)n3cncn3)CC2)nn(C)c1=O` (stereo not shown) [Compound 34], for which the “% reduction in activity (inhibition of Cn Cer1 synthse activity)” value with fungal Cer1 (Cn Cer1) came to 85.73%.

Turning to `CCSc1nc(CC(=O)N2[C@@H]3CC[C@H]2C[C@@H](O)C3)cs1` [Compound 35], the “% reduction in activity (inhibition of Cn Cer1 synthse activity)” value in the assay on fungal Cer1 (Cn Cer1) is 85.73%.

In the case of `Cc1noc(C)c1-n1c(CCCN2CCOCC2)n[nH]c1=O` [Compound 36], the “% reduction in activity (inhibition of Cn Cer1 synthse activity)” value with fungal Cer1 (Cn Cer1) was 85.73%. In the case of `CC(C)Cc1n[nH]c(Cn2nc(Cc3ccccc3)c3ccccc3c2=O)n1` [Compound 37], the “% reduction in activity (inhibition of Cn Cer1 synthse activity)” value in the assay with fungal Cer1 (Cn Cer1) was 85.73%. Take `Cc1cc(C)n2nc(C(=O)N3CCC4(CN(C)C(=O)O4)C3)cc2n1` (stereo not shown) [Compound 38]: in the assay with fungal Cer1 (Cn Cer1), the “% reduction in activity (inhibition of Cn Cer1 synthse activity)” value was determined as 85.73%.

For `CN(C)CC1COCCN(Cc2c(-c3ccccc3)nc3ncccn23)C1` (stereo not shown) [Compound 39], the “% reduction in activity (inhibition of Cn Cer1 synthse activity)” value in the assay with fungal Cer1 (Cn Cer1) was determined as 85.73%.

Regarding `NC(=O)c1cccc(CC2CCN(C(=O)CCn3ccccc3=O)C2)c1` (stereo not shown) [Compound 40], the “% reduction in activity (inhibition of Cn Cer1 synthse activity)” value with fungal Cer1 (Cn Cer1) worked out at 85.73%. Same read-out and setting: with `O=C(Nc1cccnc1)c1ccc(-c2cccc3cccnc23)o1` [Compound 41] the figure was 84.91%; with `CN1CCC2(CC1)CCN(C(=O)c1cccc(Oc3ncccn3)c1)C2` [Compound 42], 84.91%; with `CC(=O)N(C)CC1=CCCN(Cc2cc(F)c(F)cc2F)C1` [Compound 43], 84.91%. Same read-out and setting: the value for `O=C1NCC(=O)N2CCN(C(=O)c3cccc4c3NCCC4)CC12` (stereo not shown) [Compound 44] was 84.91%.

In the case of `CC(=O)N(CCc1ccc(F)cc1)CC1=CCCN(CCO)C1` [Compound 45], in the assay with fungal Cer1 (Cn Cer1), the “% reduction in activity (inhibition of Cn Cer1 synthse activity)” value is given as 84.91%.

Regarding `CNc1ncc(CN(C)C(=O)c2cnn[nH]2)cn1` [Compound 46], the “% reduction in activity (inhibition of Cn Cer1 synthse activity)” value in the assay on fungal Cer1 (Cn Cer1) turned out to be 84.91%.

Take `Cc1cc2[nH]c(CN3CCCC3c3nc4cc(F)ccc4[nH]3)cc(=O)n2n1` (stereo not shown) [Compound 47]: the “% reduction in activity (inhibition of Cn Cer1 synthse activity)” value with fungal Cer1 (Cn Cer1) is given as 84.91%. As for `O=C(c1cnn[nH]1)N1CCC(Oc2ncccn2)CC1` [Compound 48], the “% reduction in activity (inhibition of Cn Cer1 synthse activity)” value in the assay with fungal Cer1 (Cn Cer1) was 84.91%. Take `Cc1ccccc1-n1cc(CN(C)C(=O)c2ccccc2C2CCNC2)cn1` (stereo not shown) [Compound 49]: the “% reduction in activity (inhibition of Cn Cer1 synthse activity)” value with fungal Cer1 (Cn Cer1) was 84.91%. On to `CCc1nc(C)sc1CNc1nc(-c2cccnc2)nc2c1cnn2C` [Compound 50], for which the “% reduction in activity (inhibition of Cn Cer1 synthse activity)” value in the assay on fungal Cer1 (Cn Cer1) came out at 84.91%.

On to Aureobaisdin A [AbA], for which the Pma1 activity result in the assay with Pma1 (Δgcs1 strain upon treatment) was “reduced”.
